pIC50: −log10 of the molar value. Where a name gives a salt, the structure may show the parent alone. Read-outs that look alike come from different tables or passages of the source. Where a SMILES comes first, the peptide text is derived from it. The star is where a group is joined. Cbz = O=C(OCc1ccccc1)*
Tests used:
Experiment in all cases: Cell viability after 48-hr treatment (Table 1)
[1] = test system: SKOV3; assay type: cell-based; conditions: read-out: IC50, SKOV3
Description: (§1) Cell viability was assayed using CellTiter 960 AQueous One Solution Reagent (Promega, Madison, Wis.). Cells seeded at the concentration of 1,000 cells/well for HeLa, 5,000 cells/well for ES2 and HCT116 and 10,000-20,000 cells/well for other cell lines in 100 μL medium in 96-well plate were treated with RA series compounds at specified concentrations. […]

[2] = test system: FaDu; assay type: cell-based; conditions: read-out: IC50, FaDu
Description: as §1

[3] = test system: C33A; assay type: cell-based; conditions: read-out: IC50, C33A
Description: as §1

[4] = test system: CasKi; assay type: cell-based; conditions: read-out: IC50, CasKi
Description: (§2) Cell viability was assayed using CellTiter 960 AQueous One Solution Reagent (Promega, Madison, Wis.). Cells seeded at the concentration of 1,000 cells/well for HeLa, 5,000 cells/well for ES2 and HCT116 and 10,000-20,000 cells/well for other cell lines in 100 μL medium in 96-well plate were treated with RA series compounds at specified concentrations. After the indicated periods, cells were incubated according to the manufacturer's protocol with the MTS labeling mixture for 1-2 hr and absorbance at 490 nm measured using a Benchmark Plus microplate spectrophotometer (BIO-RAD).

[5] = test system: HOK-16B; assay type: cell-based; conditions: read-out: IC50, HOK-16B
Description: as §2

[6] = test system: HeLa; assay type: cell-based, human; conditions: for pIC50: read-out: IC50, HeLa; for potency in cell killing and polyubiquitin accumulation / functional assays relative to RA190: HeLa cells, FIGS. 1I, 9I, 10A-10C
Description: as §1

[7] = test system: OVCAR3; assay type: cell-based, human; conditions: XTT assay
Description: as §1

[8] = test system: HaCaT; assay type: cell-based; conditions: read-out: IC50, HaCaT
Description: (§3) Cells seeded at the concentration of 1,000 cells/well for HeLa, 5,000 cells/well for ES2 and HCT116 and 10,000-20,000 cells/well for other cell lines in 100 μL medium in 96-well plate were treated with RA series compounds at specified concentrations. […]

[9] = test system: HT3; assay type: cell-based; conditions: read-out: IC50, HT3
Description: as §3

[10] = test system: SiHa; assay type: cell-based; conditions: read-out: IC50, SiHa
Description: as §3

Compound | pIC50 ([1]; 48-hr treatment, XTT assay) | pIC50 ([2]; 48-hr treatment, XTT assay) | pIC50 ([3]; 48-hr treatment, XTT assay) | pIC50 ([4]; 48-hr treatment, XTT assay) | pIC50 ([5]; 48-hr treatment, XTT assay) | pIC50 ([6]; 48-hr treatment, XTT assay) | pIC50 [7] | pIC50 ([8]; 48-hr treatment, XTT assay) | pIC50 ([9]; 48-hr treatment, XTT assay) | pIC50 ([10]; 48-hr treatment, XTT assay) | potency in cell killing and polyubiquitin accumulation / functional assays relative to RA190 [6] | further results
N[C@@H](Cc1ccccc1)C(=O)N1CC(=Cc2ccccc2)C(=O)C(=Cc2ccccc2)C1 [RA181, 3,5-dibenzylidene-1-(S-2-amino-3-phenyl)-piperidin-4-one-HCl salt] | < 5.60 | < 5.30 | < 5.30 | 5.70 | < 5.30 | 6.46 | < 5.30 | < 5.60 | < 5.30 | 5.70 |  | 
CC(C)C[C@@H](C=O)NC(=O)[C@H](CC(C)C)NC(=O)[C@H](CC(C)C)NC(=O)OCc1ccccc1 [MG132, reference compound] (Cbz-Leu-Leu-Leu-aldehyde) |  |  |  |  |  |  |  |  |  |  |  | pIC50 ([1]; Homo sapiens, SK-OV-3, 48 h): < 5.60; pIC50 ([2]; Homo sapiens, FaDu, 48 h): < 5.60; pIC50 ([3]; Homo sapiens, C-33-A, 48 h): < 5.30; pIC50 ([4]; Homo sapiens, Ca-Ski, 48 h): 6.30; pIC50 ([5]; 48 h): 6.15; pIC50 ([6]; Homo sapiens, HeLa, 48 h): 6.12; pIC50 ([8]; Homo sapiens, HaCaT, 48 h): < 5.60; pIC50 ([9]; Homo sapiens, HT-3, 48 h): < 5.30; pIC50 ([10]; Homo sapiens, SiHa, 48 h): 5.70
N[C@@H](Cc1ccccc1)C(=O)N1CC(=Cc2ccccc2Cl)C(=O)C(=Cc2ccccc2Cl)C1 [RA166, 3,5-bis(2-chlorobenzylidene)-1-(S-2-amino-3-phenyl)-piperidin-4-one-HCl salt] | < 5.60 | < 5.30 | < 5.30 | 5.82 | < 5.30 | 6.22 | < 5.30 | < 5.60 | < 5.30 | 5.70 |  | 
Cl.N[C@@H](Cc1ccccc1)C(=O)N1CC(C(SCCO)c2ccc(Cl)c(Cl)c2)C(=O)C(C(SCCO)c2ccc(Cl)c(Cl)c2)C1 (some centres unmarked) [RA190ME, 3,5-bis((2-hydroxyethylthio)(3,4-dichlorophenyl)methyl)-1-(S-2-amino-3-phenyl)-piperidin-4-one-HCl salt] |  |  |  |  |  |  |  |  |  |  | significantly reduced its potency | 
N[C@@H](Cc1c[nH]cn1)C(=O)N1CC(=Cc2ccc(Cl)c(Cl)c2)C(=O)C(=Cc2ccc(Cl)c(Cl)c2)C1 [RA196, 3,5-bis(3,4-dichlorobenzylidene)-1-(S-1H-imidazol-4-yl) piperidin-4-one di HCl salt] | < 5.60 | < 5.30 | < 5.30 | 6.00 | 5.52 | 6.22 | 5.60 | < 5.60 | < 5.30 | 5.70 |  | 
N[C@@H](Cc1ccccc1)C(=O)N1C/C(=C\c2ccc(Cl)c(Cl)c2)C(=NO)/C(=C/c2ccc(Cl)c(Cl)c2)C1 [RA190O] |  |  |  |  |  |  |  |  |  |  | dramatically reduced activity | 
N[C@@H](Cc1ccccc1)C(=O)N1CC(Cc2ccc(Cl)c(Cl)c2)C(O)C(Cc2ccc(Cl)c(Cl)c2)C1 (some centres unmarked) [RA190R] |  |  |  |  |  |  |  |  |  |  | dramatically reduced activity | 
N[C@@H](Cc1ccccc1)C(=O)N1CC(=Cc2ccccc2F)C(=O)C(=Cc2ccccc2F)C1 [RA201, 3,5-bis(2-fluorobenzylidene)-1-(S-2-amino-3-phenyl)-piperidin-4-one-HCl salt] | < 5.60 | < 5.30 | < 5.30 | 5.60 | 5.82 | 6.46 | < 5.30 | < 5.60 | < 5.30 | 5.70 |  | 
3,5-bis(3,4-dichlorobenzylidene)-1-(S-2-amino-3-(4-hydroxy)-phenyl)-piperidin-4-one HCl salt [RA213] | < 5.60 | < 5.30 | < 5.30 | 6.22 | 5.82 | 6.22 | < 5.30 | < 5.60 | < 5.30 | 5.60 |  | 
